Data taken from PubChem BioAssay (NCI).
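Results reflect a 48-hour exposure of cells in 96-well plates to compound at five concentrations. TGI: concentration producing complete growth inhibition.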

Columns and labels:
Assay in all cases: inhibition of tumour cell growth, NCI panel, 48 h
[1] = system: HCC-2998 colon
[2] = system: OVCAR-8 ovarian
[3] = system: TK-10 renal
[4] = system: KM20L2 colon
[5] = system: LXFL 529 NSCLC
[6] = system: SF-295 CNS
[7] = system: LOX IMVI melanoma
[8] = system: SF-268 CNS
[9] = system: HOP-62 NSCLC
[10] = system: NCI-H226 lung
[11] = system: EKVX NSCLC
[12] = system: SNB-78 CNS
[13] = system: HCT-116 colon
[14] = system: KM12 colon
[15] = system: SK-OV-3 ovarian
[16] = system: HOP-18 NSCLC
[17] = system: DMS 273 small cell lung
[18] = system: RPMI-8226 leukemia
[19] = system: SNB-19 CNS
[20] = system: IGROV1 ovarian
[21] = system: DLD-1 colon
[22] = system: SN12C renal
[23] = system: CAKI-1 renal
[24] = system: MALME-3M melanoma
[25] = system: HL-60(TB) leukemia
[26] = system: RXF 393 renal
[27] = system: OVCAR-4 ovarian
[28] = system: U251 CNS
[29] = system: HT29 colon
[30] = system: ACHN renal
[31] = system: M14 melanoma
[32] = system: SNB-75 CNS
[33] = system: CCRF-CEM leukemia
[34] = system: OVCAR-5 ovarian
[35] = system: UACC-62 melanoma
[36] = system: SK-MEL-28 melanoma
[37] = system: A549 NSCLC
[38] = system: UACC-257 melanoma
[39] = system: SK-MEL-5 melanoma
[40] = system: HCT-15 colon
[41] = system: NCI-H23 lung
[42] = system: MOLT-4 leukemia
[43] = system: NCI-H522 lung
[44] = system: OVCAR-3 ovarian
[45] = system: 786-0 renal
[46] = system: A498 renal
[47] = system: DMS 114 small cell lung
[48] = system: M19-MEL melanoma
[49] = system: K-562 leukemia
[50] = system: SW-620 colon
[51] = system: SR leukemia
[52] = system: COLO 205 colon
[53] = system: SK-MEL-2 melanoma
[54] = system: UO-31 renal
[55] = system: NCI-H460 lung
[56] = system: SF-539 CNS
[57] = system: HOP-92 NSCLC
[58] = system: XF 498 CNS

With `O=C1CC(c2ccccc2)NCN1` (stereo not drawn) the TGI [1] was > 100 µM, the TGI [2] was > 100 µM and the TGI [3] was > 100 µM. The TGI [4] was > 100 µM, the TGI [5] was > 100 µM and the TGI [6] was > 100 µM. The TGI [7] was > 100 µM, the TGI [8] was > 100 µM and the TGI [9] was > 100 µM. For the same compound, the TGI [10] was > 100 µM, the TGI [11] was > 100 µM and the TGI [12] was > 100 µM. The TGI [13] was > 100 µM, the TGI [14] was > 100 µM and the TGI [15] was > 100 µM. For the same compound, the TGI [16] was > 100 µM, the TGI [17] was > 100 µM and the TGI [18] was > 100 µM. The TGI [19] was > 100 µM, the TGI [20] was > 100 µM and the TGI [21] was > 100 µM. For the same compound, the TGI [22] was > 100 µM, the TGI [23] was > 100 µM and the TGI [24] was > 100 µM. The TGI [25] was > 100 µM, the TGI [26] was > 100 µM and the TGI [27] was > 100 µM. For the same compound, the TGI [28] was > 100 µM, the TGI [29] was > 100 µM and the TGI [30] was > 100 µM. For the same compound, the TGI [31] was > 100 µM, the TGI [32] was > 100 µM and the TGI [33] was > 100 µM. For the same compound, the TGI [34] was > 100 µM, the TGI [35] was > 100 µM and the TGI [36] was > 100 µM. The TGI [37] was > 100 µM, the TGI [38] was > 100 µM and the TGI [39] was > 100 µM. For the same compound, the TGI [40] was > 100 µM, the TGI [41] was > 100 µM and the TGI [42] was > 100 µM. For the same compound, the TGI [43] was > 100 µM, the TGI [44] was > 100 µM and the TGI [45] was > 100 µM. The TGI [46] was > 100 µM, the TGI [47] was > 100 µM and the TGI [48] was > 100 µM. The TGI [49] was > 100 µM, the TGI [50] was > 100 µM and the TGI [51] was > 100 µM. For the same compound, the TGI [52] was > 100 µM, the TGI [53] was > 100 µM and the TGI [54] was > 100 µM.
In the case of `COC1=CC(C)C2C[C@H]3O[C@H](O)C[C@H]4C(C)C(=O)C(O)C([C@@]2(C)C1=O)[C@@]34C` (stereo partly drawn), the TGI [1] is reported as > 100 µM, the TGI [2] is reported as > 100 µM and the TGI [3] is reported as > 100 µM. The TGI [5] was > 100 µM, the TGI [6] was > 100 µM and the TGI [55] was > 100 µM. The TGI [7] was > 100 µM, the TGI [10] was > 100 µM and the TGI [11] was > 100 µM. For the same compound, the TGI [12] was > 100 µM, the TGI [13] was > 100 µM and the TGI [14] was > 100 µM. The TGI [15] was > 100 µM, the TGI [16] was > 100 µM and the TGI [17] was > 100 µM. The TGI [18] was > 100 µM, the TGI [20] was > 100 µM and the TGI [21] was > 100 µM. For the same compound, the TGI [22] was > 100 µM, the TGI [23] was > 100 µM and the TGI [24] was > 100 µM. For the same compound, the TGI [56] was > 100 µM, the TGI [26] was > 100 µM and the TGI [29] was > 100 µM. For the same compound, the TGI [30] was > 100 µM, the TGI [31] was > 100 µM and the TGI [32] was > 100 µM. For the same compound, the TGI [33] was > 100 µM, the TGI [35] was > 100 µM and the TGI [36] was > 100 µM. The TGI [37] was > 100 µM, the TGI [38] was > 100 µM and the TGI [39] was > 100 µM. The TGI [40] was > 100 µM, the TGI [41] was > 100 µM and the TGI [42] was > 100 µM. For the same compound, the TGI [43] was > 100 µM, the TGI [44] was > 100 µM and the TGI [45] was > 100 µM. The TGI [46] was > 100 µM, the TGI [47] was > 100 µM and the TGI [48] was > 100 µM. For the same compound, the TGI [49] was > 100 µM, the TGI [50] was > 100 µM and the TGI [57] was > 100 µM. The TGI [52] was > 100 µM and the TGI [54] was > 100 µM.
In the case of `NC(=S)Nc1nnc(-c2ccc(-c3nnc(NC(N)=S)o3)cc2)o1`, the TGI [1] is reported as > 100 µM, the TGI [2] is reported as > 100 µM and the TGI [3] is reported as > 100 µM. The TGI [4] was > 100 µM, the TGI [5] was > 100 µM and the TGI [6] was > 100 µM. The TGI [55] was > 100 µM, the TGI [7] was > 100 µM and the TGI [8] was > 100 µM. The TGI [9] was > 100 µM, the TGI [10] was > 100 µM and the TGI [11] was > 100 µM. The TGI [12] was > 100 µM, the TGI [13] was > 100 µM and the TGI [14] was > 100 µM. The TGI [15] was > 100 µM, the TGI [16] was > 100 µM and the TGI [17] was > 100 µM. The TGI [18] was > 100 µM, the TGI [19] was > 100 µM and the TGI [20] was > 100 µM. For the same compound, the TGI [21] was > 100 µM, the TGI [22] was > 100 µM and the TGI [23] was > 100 µM. The TGI [24] was > 100 µM, the TGI [25] was > 100 µM and the TGI [56] was > 100 µM. The TGI [26] was > 100 µM, the TGI [27] was > 100 µM and the TGI [28] was > 100 µM. For the same compound, the TGI [29] was > 100 µM, the TGI [30] was > 100 µM and the TGI [31] was > 100 µM. For the same compound, the TGI [32] was > 100 µM, the TGI [33] was > 100 µM and the TGI [34] was > 100 µM. For the same compound, the TGI [35] was > 100 µM, the TGI [36] was > 100 µM and the TGI [37] was > 100 µM. For the same compound, the TGI [38] was > 100 µM, the TGI [39] was > 100 µM and the TGI [40] was > 100 µM. For the same compound, the TGI [41] was > 100 µM, the TGI [42] was > 100 µM and the TGI [43] was > 100 µM. The TGI [44] was > 100 µM, the TGI [45] was > 100 µM and the TGI [46] was > 100 µM. The TGI [47] was > 100 µM, the TGI [48] was > 100 µM and the TGI [49] was > 100 µM. The TGI [50] was > 100 µM, the TGI [57] was > 100 µM and the TGI [52] was > 100 µM. The TGI [53] was > 100 µM and the TGI [54] was > 100 µM.
`CC1=C(N(C)C)C(=O)c2nc3n(c2C1=O)CCC3OC(N)=O` (stereo not drawn) showed a TGI [1] of 34.7 µM, a TGI [2] of 34.3 µM and a TGI [3] of 32.3 µM. It also gave a TGI [4] of 38.6 µM, a TGI [6] of 28.5 µM and a TGI [55] of 30.4 µM. The TGI [7] was 25.7 µM, the TGI [8] was 34.6 µM and the TGI [9] was 31.6 µM. For the same compound, the TGI [10] was 33.7 µM, the TGI [11] was 36 µM and the TGI [12] was 40.9 µM. It also gave a TGI [58] of 38.8 µM, a TGI [13] of 28.8 µM and a TGI [14] of 31.5 µM. The TGI [15] was 29.5 µM, the TGI [16] was 32 µM and the TGI [17] was 29.3 µM. The TGI [18] was > 100 µM, the TGI [19] was 31.4 µM and the TGI [20] was 30.6 µM. For the same compound, the TGI [21] was 29.9 µM, the TGI [22] was 28.8 µM and the TGI [23] was 33.1 µM. It also gave a TGI [24] of 23.3 µM, a TGI [25] of 31.6 µM and a TGI [56] of 31.8 µM. For the same compound, the TGI [27] was 34.7 µM, the TGI [28] was 49.9 µM and the TGI [29] was 35.6 µM. The TGI [30] was 30.4 µM, the TGI [31] was 27.4 µM and the TGI [32] was 42.5 µM. The TGI [33] was 42.8 µM, the TGI [34] was 34 µM and the TGI [35] was 18 µM. The TGI [36] was 34.4 µM, the TGI [37] was 35.1 µM and the TGI [38] was 27.6 µM. The TGI [39] was 23.7 µM, the TGI [40] was 28.9 µM and the TGI [41] was 28.5 µM. For the same compound, the TGI [42] was > 100 µM, the TGI [43] was 28.8 µM and the TGI [44] was 30.6 µM. It also gave a TGI [45] of 31.6 µM, a TGI [46] of 26.6 µM and a TGI [47] of 30.6 µM. The TGI [48] was 3.12 µM, the TGI [49] was 49.8 µM and the TGI [50] was 33.6 µM. For the same compound, the TGI [57] was 28.2 µM, the TGI [51] was > 100 µM and the TGI [52] was 33.1 µM. It also gave a TGI [53] of 29.8 µM and a TGI [54] of 31.1 µM.
